{
  "source": "patent US20230405004A1",
  "about": "(NEURORIVE INC, priority 2020, published 2023)",
  "key": {"[1]": {"system": "5xFAD mouse", "assay": "Morris water maze (MWM) task", "assay_type": "in vivo", "conditions": "for Escape latency (Increase or decrease compared to mutated mouse vehicle group): DAY 4; for time spent in the target quadrant (Increase or decrease compared to mutated mouse vehicle group): probe test DAY 5", "description": "The 5xFAD mouse used in this experiment was a genetically modified mouse model in which Alzheimer's disease-inducing genes were inserted. Specifically, mice over-expressed both the amyloid precursor protein with the Swedish mutation (K670N, M671L), the Florida mutation […], and the London mutation (V717I) and PS1 with the M146L and L286V mutations. The 5xFAD mouse model is the most widely used in Alzheimer's disease studies.\nA Morris water maze (MWM) task was conducted to examine an effect on improving cognitive function depending on the administration of the complex composition of the present invention. The experimental equipment was comprised of a circular water tank (150 cm in diameter and 45 cm in height) filled with water having a temperature of about 22±2° C., an escape platform (10 cm in diameter and 30 cm in height), and 4 markers attached to the wall that allows the mouse to remember the location of the escape platform. The above markers remained unchanged throughout the test period. The escape platform was placed 1 cm above the water surface or 0.5 to 1.5 cm below the water surface according to the purpose of the experiment. When placed under the water surface, the water was made opaque with white water-based paint so that the escape platform was not visible to the eye. The Morris water maze was divided into four quadrants, i.e., northeast (NE), northwest (NW), southeast (SE) and southwest (SW), wherein the escape platform was placed in the center of the southwest quadrant, and the mouse started randomly from one of the others.\nThe escape platform was made visible on Learning DAY 0. Each mouse was trained to recognize that it was possible to escape when they swam toward the escape platform and landed thereon. On DAY 1-4, the escape platform was hidden by being placed under the water, and then the mice learned the position of the escape platform. The time limit was set to 60 seconds, and if the mouse found the escape platform within 60 seconds, it was allowed to stay on the escape platform for 5 seconds. The mice were then immediately transferred to the breeding cage. On DAY 5, the probe test was performed without the escape platform. The probe test was performed by placing the mouse in the farthest part of the quadrant where the escape platform was placed during the training day, and 60 seconds was set as the time limit. The indexes of cognitive function include the escape latency which is the time required for the mouse to find the escape platform and the time spent in the quadrant where the escape platform was placed. It was judged that the shorter the time it takes to escape (FIG. 2A) and the longer the mouse stays in the quadrant where the escape platform was placed (FIG. 2B), the better the memory and learning ability of the mouse.\nThen, each group was subjected to oral administration for 4 weeks to perform the experiment."}, "[2]": {"system": "5xFAD mouse", "assay": "Y-maze test", "assay_type": "in vivo", "conditions": "donepezil 2 mg/kg oral", "method": "In order to test an improvement effect on short-term working memory ability according to the administration of the complex composition of the present invention, a Y-maze test was performed using the mouse model of the Alzheimer's disease described above. For the experiment, a Y-shaped maze (36 cm in width, 16 cm in length, 15 cm in height) having three arms was used, and the mice started randomly in three arms. The mice were placed in the maze, then the number of times when the center of the mouse body entered each arm and the cases in which the mice entered each arm sequentially were checked. The alternation behavior is defined as consecutive entries in three different arms without overlapping, and spontaneous alternation behavior was calculated by the following equation:\nAlternation (%)=(the number of entities into all the 3 arms on consecutive/the number of entirety arms entries−2)×100\nThen, each group was subjected to oral administration to perform the experiment."}},
  "data": [
    {"smiles": "COc1cc2c(cc1OC)C(=O)C(CC1CCN(Cc3ccccc3)CC1)C2", "note": "(stereo not drawn) [Donepezil, donepezil]", "values": [
      {"measurement": "Escape latency (Increase or decrease compared to mutated mouse vehicle group)", "setting": "[1]; donepezil 1 mg/kg oral 4 weeks", "result": "−20.15", "unit": "%"},
      {"measurement": "time spent in the target quadrant (Increase or decrease compared to mutated mouse vehicle group)", "setting": "[1]; donepezil 1 mg/kg oral 4 weeks", "result": 51.63, "unit": "%"},
      {"measurement": "Escape latency (Increase or decrease compared to mutated mouse vehicle group)", "setting": "[1]; donepezil 2 mg/kg oral 4 weeks", "result": "−33.79", "unit": "%"},
      {"measurement": "time spent in the target quadrant (Increase or decrease compared to mutated mouse vehicle group)", "setting": "[1]; donepezil 2 mg/kg oral 4 weeks", "result": 148.46, "unit": "%"},
      {"measurement": "escape latency reduced by, based on the mutant mouse vehicle group", "setting": "[1]; mutated mouse, donepezil 2 mg/kg alone, stated as reduction", "result": 33.79, "unit": "%"},
      {"measurement": "Voluntary alternation behavior (Increase or decrease compared to mutated mouse vehicle group)", "setting": "[2]", "result": 25.15, "unit": "%"}
    ]}
  ]
}
